What follows are compounds tested against T1, human QRFP receptor (GPR103) (Homo sapiens, UniProt Q96P65) (assay: QRFP43-binding inhibitory test). Details: inhibition of specific [125I]QRFP43 binding; membranes of CHO-K1 cells expressing GPR103; 25° C., 1 hour.
T1 construct: expressed in transfected cells; host or cells: CHO-K1 NFAT beta-lactamase (Aurora); membrane sample
T1 sequence (Q96P65 1-431): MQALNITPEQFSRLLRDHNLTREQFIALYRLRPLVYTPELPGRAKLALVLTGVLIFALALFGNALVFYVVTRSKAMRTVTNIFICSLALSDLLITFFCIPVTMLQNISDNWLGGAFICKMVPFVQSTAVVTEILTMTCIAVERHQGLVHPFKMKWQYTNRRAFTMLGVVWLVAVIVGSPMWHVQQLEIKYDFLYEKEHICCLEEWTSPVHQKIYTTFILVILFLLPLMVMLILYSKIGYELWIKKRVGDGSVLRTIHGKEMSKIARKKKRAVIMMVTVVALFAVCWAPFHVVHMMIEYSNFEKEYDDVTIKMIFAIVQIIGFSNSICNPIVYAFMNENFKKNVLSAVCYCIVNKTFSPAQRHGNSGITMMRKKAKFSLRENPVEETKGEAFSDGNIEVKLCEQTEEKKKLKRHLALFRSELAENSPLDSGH
Description: A cDNA sequence [Accession No. NM_198179] coding for a human QRFP receptor (GPR103) was cloned in an expression vector pEF1V5-HisB (by Invitrogen). The resulting expression vector was transfected in a host cell CHO-K1 NFAT (3-Lactamase (by Aurora), according to a cationic lipid process [see Proceedings of the National Academy of Sciences of the United States of America, Vol. 84, p. 7413, 1987], thereby producing a QRFP receptor (GPR103).
A membrane sample prepared from the cells having expressed a QRFP receptor (GPR103) was incubated in an assay buffer (50 mM Tris-HCl, 1 mM EDTA and 0.1% BSA, pH 7.4) along with a test compound and 20,000 cpm [^125I] QRFP43 (by Perkin Elmer) therein, at 25° C. for 1 hour, and then filtered through a glass filter GF/C. After washed with 50 mM Tris-HCl (containing 2 mM EDTA, 10 mM MgCl2 and 0.04% Tween-20) buffer (pH 7.4), the radioactivity on the glass filter was determined. The non-specific binding was determined in the presence of 1 μM peptide QRFP43, and the 50% inhibitory concentration (IC50) of the test compound to the specific [^125I] QRFP43 binding was computed [see Endocrinology, Vol. 131, p. 2090, 1992].
In the case of `CN1CCN(CCNC(=O)c2[nH]c3ccc(Cl)cc3c2-c2ccccc2)CC1` [Example 5, 5-chloro-N-[2-(4-methylpiperazin-1-yl)ethyl]-3-phenyl-1H-indole-2-carboxamide], the IC50 is reported as 11.4 nM.
For `CN1CCC(CCNC(=O)c2[nH]c3ccc(Cl)cc3c2-c2ccoc2)CC1` [Example 6, 5-chloro-3-(3-fury)-N-[2-(1-methylpiperidin-4-yl)ethyl]-1H-indole-2-carboxamide], the IC50 was 6.24 nM.
Compound `CNC(CCCCNC(=O)c1[nH]c2ccccc2c1-c1ccoc1)c1ccccn1` (single isomer, unassigned) [Example 9, 3-(3-fury)-N-[5-(methylamino)-5-pyridin-2-ylpentyl]-1H-indole-2-carboxamide] has an IC50 of 1.06 nM.
Work on `CN1CC[C@H]2C[C@H](NC(=O)c3cc4cc(Cl)ccc4n3C)CC[C@@H]2C1` (single isomer, unassigned) [Reference example 1, 5-chloro-1-methyl-N-(2-methyldecahydroisoquinolin-6-yl)-1H-indole-2-carboxamide] yielded an IC50 of 22.6 nM.
`CN1CCN(CCNC(=O)c2[nH]c3ccc(Cl)cc3c2-c2ccoc2)CC1` [Example 1, 5-chloro-3-(3-fury)-N-[2-(4-methylpiperazin-1-yl)ethyl]-1H-indole-2-carboxamide] showed an IC50 of 2.26 nM.
With `O=C(NCCCCC(c1ccco1)N1CCCC1)c1[nH]c2ccc(Cl)cc2c1-c1ccoc1` (racemic) [Example 8, 5-chloro-3-(3-fury)-N-[5-(2-furyl)-5-pyrrolidin-1-ylpentyl]-1H-indole-2-carboxamide] the IC50 was 0.58 nM.
`CN1CCN(CCNC(=O)c2[nH]c3ccc(Cl)cc3c2-c2cscn2)CC1` [Example 4, 5-chloro-N-[2-(4-methylpiperazin-1-yl)ethyl]-3-(1,3-thiazol-4-yl)-1H-indole-2-carboxamide] showed an IC50 of 14.2 nM.
`CN1CC[C@H]2C[C@H](NC(=O)c3[nH]c4ccc(Cl)cc4c3-c3ccoc3)CC[C@@H]2C1` (single isomer, unassigned) [Example 7, 5-chloro-3-(3-fury)-N-(2-methyldecahydroisoquinolin-6-yl)-1H-indole-2-carboxamide] gave an IC50 of 9.82 nM.
Compound `CN1CCN(CCNC(=O)c2[nH]c3ccc(Cl)cc3c2-c2cccs2)CC1` [Example 3, 5-chloro-N-[2-(4-methylpiperazin-1-yl)ethyl]-3-(2-thienyl)-1H-indole-2-carboxamide] has an IC50 of 4.68 nM.
`CN1CCN(CCNC(=O)c2[nH]c3ccc(Cl)cc3c2-c2ccsc2)CC1` [Example 2, 5-chloro-N-[2-(4-methylpiperazin-1-yl)ethyl]-3-(3-thienyl)-1H-indole-2-carboxamide] gave an IC50 of 4.71 nM.
